Assay results taken from patent US12156523B2 (priority 2017, dated 2024).

What was measured:
Pyricularia oryzae [1] = assay: whole plant or invertebrate; type: in vivo; conditions: soil, read-out: Control value (number of lesions at the second leaf)
Pyricularia oryzae [2] = assay: whole plant or invertebrate; type: in vivo; conditions: foliar, read-out: Control value (number of lesions at the second leaf)

| Compound | pest or weed control at 10 µg/mL (Pyricularia oryzae [1]) [%] | pest or weed control at 200 ppm (Pyricularia oryzae [2]) [%] | pest or weed control at 25 ppm (Pyricularia oryzae [2]) [%] |
| --- | --- | --- | --- |
| O=C(Nc1ccc2c(c1)CCCC2)c1cc(F)nc(F)c1F [Example 1-3] | ≥ 80 | ≥ 80 |  |
| O=C(Nc1nccs1)c1cc(F)nc(F)c1F [Example 1-18] | ≥ 80 | ≥ 80 |  |
| O=C(Nc1cc(Cl)c(Cl)c(Cl)c1)c1cc(F)nc(F)c1F [Example 1-19] | ≥ 80 |  | ≥ 80 |
| Cc1ccc(NC(=O)c2cc(F)nc(F)c2F)cc1Cl [Example 1-30] | ≥ 80 |  | ≥ 80 |
| O=C(Nc1cccc(Cl)c1)c1cc(F)nc(F)c1F [Example 1-32] | ≥ 80 | ≥ 80 |  |
| CCOc1cccc(NC(=O)c2cc(F)nc(F)c2F)c1 [Example 1-38] |  |  | ≥ 80 |
| CC(C)Oc1cccc(NC(=O)c2cc(F)nc(F)c2F)c1 [Example 1-41] |  |  | ≥ 80 |
| COc1cccc(NC(=O)c2cc(F)nc(F)c2F)c1 [Example 1-44] | ≥ 80 |  | ≥ 80 |
| CC(C)Oc1ccc(NC(=O)c2cc(F)nc(F)c2F)cc1 [Example 1-59] | ≥ 80 |  | ≥ 80 |
| COC(=O)CNC(=O)c1cc(F)nc(F)c1F [Example 1-86] | ≥ 80 | ≥ 80 |  |
| O=C(NC(=O)c1cc(F)nc(F)c1F)c1ccccc1 [Example 1-93] | ≥ 80 | ≥ 80 |  |
| O=C(Nc1ccccc1)c1cc(F)nc(F)c1F [Example 1-98] | ≥ 80 | ≥ 80 |  |
| CC(=O)Oc1ccccc1COC(=O)c1cc(F)nc(F)c1F [Example 1-102] | ≥ 80 | ≥ 80 |  |
| COc1ccccc1OC(=O)c1cc(F)nc(F)c1F [Example 1-103] | ≥ 80 | ≥ 80 |  |
| O=C(OCc1cccc(Cl)c1)c1cc(F)nc(F)c1F [Example 1-105] | ≥ 80 | ≥ 80 |  |
| O=C(Oc1ccccc1)c1cc(F)nc(F)c1F [Example 1-129] |  | ≥ 80 |  |
| COc1ccccc1NC(=O)c1cc(F)nc(F)c1 [Example 1-131] |  | ≥ 80 |  |
| COc1cc(NC(=O)c2cc(F)nc(F)c2)cc(OC)c1 [Example 1-132] | ≥ 80 | ≥ 80 |  |
| Cc1ccc(NC(=O)c2cc(F)nc(F)c2)cc1Cl [Example 1-133] | ≥ 80 | ≥ 80 |  |

| Compound | pest or weed control at 10 µg/mL (Pyricularia oryzae [1]) [%] | pest or weed control at 200 ppm (Pyricularia oryzae [2]) [%] | pest or weed control at 25 ppm (Pyricularia oryzae [2]) [%] |
| --- | --- | --- | --- |
| CC(C)Oc1ccc(NC(=O)c2cc(F)nc(F)c2)cc1 [Example 1-137] | ≥ 80 | ≥ 80 |  |
| COc1ccc(NC(=O)c2cc(F)nc(F)c2)cc1 [Example 1-138] |  | ≥ 80 |  |
| O=C(Nc1ccc(C(F)(F)F)cc1)c1cc(F)nc(F)c1 [Example 1-139] | ≥ 80 | ≥ 80 | ≥ 80 |
| CCc1cccc(NC(=O)c2cc(F)nc(F)c2)c1 [Example 1-168] | ≥ 80 | ≥ 80 | ≥ 80 |
| CCc1ccccc1NC(=O)c1cc(F)nc(F)c1 [Example 1-169] | ≥ 80 | ≥ 80 |  |
| Cc1ccc(NC(=O)c2cc(F)nc(F)c2)cc1 [Example 1-170] | ≥ 80 | ≥ 80 |  |
| O=C(Nc1ccncc1)c1cc(F)nc(F)c1 [Example 1-172] |  | ≥ 80 | ≥ 80 |
| O=C(Nc1ccccc1[N+](=O)[O-])c1cc(F)nc(F)c1 [Example 1-173] | ≥ 80 | ≥ 80 |  |
| O=C(OCc1ccc(Cl)nc1)c1cc(F)nc(F)c1 [Example 1-174] | ≥ 80 | ≥ 80 | ≥ 80 |
| O=C(Nc1cccc([N+](=O)[O-])c1)c1cc(F)nc(F)c1 [Example 1-175] | ≥ 80 | ≥ 80 |  |
| O=C(Nc1ccc([N+](=O)[O-])cc1)c1cc(F)nc(F)c1 [Example 1-176] | ≥ 80 | ≥ 80 |  |
| CC(C)c1ccccc1NC(=O)c1cc(F)nc(F)c1 [Example 1-177] |  | ≥ 80 |  |
| CC(C)c1cccc(NC(=O)c2cc(F)nc(F)c2)c1 [Example 1-178] | ≥ 80 | ≥ 80 |  |
| CC(C)c1ccc(NC(=O)c2cc(F)nc(F)c2)cc1 [Example 1-179] | ≥ 80 | ≥ 80 |  |
| CCCCc1ccc(NC(=O)c2cc(F)nc(F)c2)cc1 [Example 1-180] | ≥ 80 | ≥ 80 |  |
| O=C(OCc1ccccc1)c1cc(F)nc(F)c1 [Example 1-183] | ≥ 80 | ≥ 80 |  |
| COc1cccc(OC(=O)c2cc(F)nc(F)c2)c1 [Example 1-187] | ≥ 80 | ≥ 80 |  |
| COC(=O)c1cc(F)nc(F)c1 [Example 1-189] | ≥ 80 |  |  |
| CSc1cccc(NC(=O)c2cc(F)nc(F)c2)c1 [Example 1-192] | ≥ 80 |  |  |

| Compound | pest or weed control at 10 µg/mL (Pyricularia oryzae [1]) [%] | pest or weed control at 200 ppm (Pyricularia oryzae [2]) [%] | pest or weed control at 25 ppm (Pyricularia oryzae [2]) [%] |
| --- | --- | --- | --- |
| O=C(Nc1nc2ccccc2s1)c1cc(F)nc(F)c1 [Example 1-194] | ≥ 80 |  |  |
| COc1ccc(NC(=O)c2cc(F)nc(F)c2)cc1 [Example 1-200] | ≥ 80 |  |  |
| O=C(Nc1ccc(F)cc1)c1cc(F)nc(F)c1 [Example 1-201] | ≥ 80 |  |  |
| O=C(Oc1ccc([N+](=O)[O-])cc1)c1cc(F)nc(F)c1 [Example 1-203] | ≥ 80 |  |  |
| O=C(OC1CCCCC1)c1cc(F)nc(F)c1 [Example 1-205] | ≥ 80 |  |  |
| Cc1cccc(OC(=O)c2cc(F)nc(F)c2)c1 [Example 1-206] | ≥ 80 |  |  |
| O=C(Oc1cccc(F)c1)c1cc(F)nc(F)c1 [Example 1-207] | ≥ 80 |  |  |
| Cc1ccccc1OC(=O)c1cc(F)nc(F)c1 [Example 1-208] | ≥ 80 |  |  |
| O=C(Oc1ccccc1Cl)c1cc(F)nc(F)c1 [Example 1-209] | ≥ 80 |  |  |
| O=C(Oc1ccccc1F)c1cc(F)nc(F)c1 [Example 1-211] | ≥ 80 |  |  |
| CCCCCCOC(=O)c1cc(F)nc(F)c1 [Example 1-213] | ≥ 80 |  |  |
| CCCCCCCCCCCCOC(=O)c1cc(F)nc(F)c1 [Example 1-214] | ≥ 80 |  |  |
| O=C(Oc1ccccc1)c1cc(F)nc(F)c1 [Example 1-218] | ≥ 80 |  |  |
| Cn1cccc1C(=O)c1cc(F)nc(F)c1F [Example 2-2] | ≥ 80 |  |  |
| O=C(c1cc(F)nc(F)c1F)N1CCc2ccccc21 [Example 2-4] | ≥ 80 |  |  |
| O=C1c2ccccc2S(=O)(=O)N1C(=O)c1cc(F)nc(F)c1F [Example 2-5] | ≥ 80 |  |  |
| CC(=O)OCc1cc(F)nc(F)c1F [Example 3-1] | ≥ 80 |  |  |
| Fc1cc(C2=NCCO2)c(F)c(F)n1 [Example 4-2] | ≥ 80 |  |  |
| Fc1cc(C2=NCCCO2)c(F)c(F)n1 [Example 4-3] | ≥ 80 |  |  |
